Data taken from patent EP3305781A1, “CHEMICAL SUBSTANCES WHICH INHIBIT THE ENZYMATIC ACTIVITY OF HUMAN KALLIKREIN-RELATED PEPTIDASE 6 (KLK6)” (Deutsches Krebsforschungszentrum, priority 2016, dated 2018).
Where two headings read alike, the source gives them in different places.

Experiments:
Assay in all cases: Biochemical inhibition assay, fluorogenic substrate FSR-AMC
KLK6 = KLK6 (Homo sapiens, UniProt Q92876)
Thrombin = Thrombin (Homo sapiens, UniProt P00734)
Trypsin = Trypsin (Homo sapiens, UniProt P07477)
Factor Xa = Factor Xa (Homo sapiens, UniProt P00742)
Sequence of Factor Xa (P00742 235-488 limits assumed): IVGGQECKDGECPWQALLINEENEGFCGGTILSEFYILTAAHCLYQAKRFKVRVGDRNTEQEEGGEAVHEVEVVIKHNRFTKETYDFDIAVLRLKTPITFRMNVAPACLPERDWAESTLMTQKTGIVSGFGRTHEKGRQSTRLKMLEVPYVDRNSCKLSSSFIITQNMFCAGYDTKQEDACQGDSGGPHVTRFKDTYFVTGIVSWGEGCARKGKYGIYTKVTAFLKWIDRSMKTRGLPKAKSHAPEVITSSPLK
Sequence of Factor Xa (P00742 41-179 partner limits assumed): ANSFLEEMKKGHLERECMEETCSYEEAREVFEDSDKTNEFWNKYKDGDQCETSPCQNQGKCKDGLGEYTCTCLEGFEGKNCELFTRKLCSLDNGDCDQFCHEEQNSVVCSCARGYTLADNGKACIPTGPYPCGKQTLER

[1] = read-out: KLK6 IC50, KLK6 5 nM (produced in insect cells), 30 min incubation with inhibitor, FSR-AMC 20 µM, Tris pH 7.5
[2] = read-out: Thrombin IC50, Thrombin 9.8·10^-5 NIH unit/mL, 30 min incubation with inhibitor, FSR-AMC 20 µM, Tris pH 7.5
[3] = read-out: Trypsin IC50, Trypsin 0.88 ng/mL, 30 min incubation with inhibitor, FSR-AMC 20 µM, Tris pH 7.5
[4] = read-out: Factor Xa IC50, Factor Xa 4 nM, 30 min incubation with inhibitor, FSR-AMC 20 µM, Tris pH 7.5

Row | IC50 (KLK6) [µM] | IC50 (Thrombin) [µM] | IC50 (Trypsin) [µM] | IC50 (Factor Xa) [µM] | IC50 (KLK6; [1]) [µM] | IC50 (Thrombin; [2]) [µM] | IC50 (Trypsin; [3]) [µM] | IC50 (Factor Xa; [4]) [µM] | SMILES
1 | 2.89 | > 200 | > 200 | > 200 |  |  |  |  | Cc1nn(-c2ccc(C(F)(F)F)cc2)c(C)c1NC(=O)COC(=O)Cn1c(C)cc2ccccc21 [compound 4, 2-((3,5-dimethyl-1-(4-(trifluoromethyl)phenyl)-1H-pyrazol-4-yl)amino)-2-oxoethyl 2-(2-methyl-1H-indol-1-yl)acetate]
2 | 0.172 | > 200 | 51 | 50 |  |  |  |  | Cc1nn(-c2ccccc2[N+](=O)[O-])c(C)c1NC(=O)COC(=O)Cn1c(C)cc2ccccc21 [compound 5, 2-((3,5-dimethyl-1-(2-nitrophenyl)-1H-pyrazol-4-yl)amino)-2-oxoethyl 2-(2-methyl-1H-indol-1-yl)acetate]
3 | 0.439 | > 200 | > 200 | > 200 |  |  |  |  | Cc1nn(-c2ccc(C#N)cc2)c(C)c1NC(=O)COC(=O)Cn1c(C)cc2ccccc21 [compound 6, 2-((1-(4-cyanophenyl)-3,5-dimethyl-1H-pyrazol-4-yl)amino)-2-oxoethyl 2-(2-methyl-1H-indol-1-yl)acetate]
4 | 0.598 | > 200 | > 200 | > 200 |  |  |  |  | COc1ccc(Cn2nc(C)c(NC(=O)COC(=O)Cn3c(C)cc4ccccc43)c2C)cc1 [compound 7, 2-((1-(4-methoxybenzyl)-3,5-dimethyl-1H-pyrazol-4-yl)amino)-2-oxoethyl 2-(2-methyl-1H-indol-1-yl)acetate]
5 | 0.258 | > 200 | 126 | 139 |  |  |  |  | Cc1nn(-c2ccccc2C(F)(F)F)c(C)c1NC(=O)COC(=O)Cn1c(C)cc2ccccc21 [compound 8, 2-((3,5-dimethyl-1-(2-(trifluoromethyl)phenyl)-1H-pyrazol-4-yl)amino)-2-oxoethyl 2-(2-methyl-1H-indol-1-yl)acetate]
6 | 0.267 | 197 | 67.1 | > 200 |  |  |  |  | Cc1ccc(-n2nc(C)c(NC(=O)COC(=O)Cn3c(C)cc4ccccc43)c2C)cc1 [compound 9, 2-((3,5-dimethyl-1-(p-tolyl)-1H-pyrazol-4-yl)amino)-2-oxoethyl 2-(2-methyl-1H-indol-1-yl)acetate]
7 | 0.994 | > 200 | > 200 | > 200 |  |  |  |  | Cc1nn(-c2ccc([N+](=O)[O-])cc2)c(C)c1NC(=O)COC(=O)Cn1c(C)cc2ccccc21 [compound 10, 2-((3,5-dimethyl-1-(4-nitrophenyl)-1H-pyrazol-4-yl)amino)-2-oxoethyl 2-(2-methyl-1H-indol-1-yl)acetate]
8 | 14.5 | > 200 | > 200 | > 200 |  |  |  |  | Cc1nn(-c2ccccc2)c(C)c1NC(=O)COC(=O)Cn1ccc2ccccc21 [compound 11, 2-((3,5-dimethyl-1-phenyl-1H-pyrazol-4-yl)amino)-2-oxoethyl 2-(1H-indol-1-yl)acetate]
9 | 6.47 | > 200 | 133 | 162 |  |  |  |  | Cc1ccc(-n2nc(C)c(NC(=O)COC(=O)Cc3c[nH]c4ccccc34)c2C)cc1 [compound 13, 2-((3,5-dimethyl-1-(p-tolyl)-1H-pyrazol-4-yl)amino)-2-oxoethyl 2-(1H-indol-3-yl)acetate]
10 | 16.2 | > 200 | > 200 | > 200 |  |  |  |  | Cc1nn(-c2ccccc2)c(C)c1NC(=O)COC(=O)Cn1cc(C)c2ccccc21 [compound 14, 2-((3,5-dimethyl-1-phenyl-1H-pyrazol-4-yl)amino)-2-oxoethyl 2-(3-methyl-1H-indol-1-yl)acetate]
11 |  |  |  |  | 4.72 | > 200 | 144 | > 200 | Cc1nn(-c2ccccc2)c(C)c1NC(=O)COC(=O)Cn1c(C)c(C)c2ccccc21 [compound 15]
12 |  |  |  |  | 0.158 | > 200 | > 200 | > 200 | Cc1nn(-c2ccccc2)c(C)c1NC(=O)COC(=O)Cn1c(C(F)(F)F)cc2ccccc21 [compound 16]
13 |  |  |  |  | 109 | > 200 | > 200 | > 200 | Cc1cc(C)n(CC(=O)OCC(=O)Nc2c(C)nn(-c3ccccc3)c2C)n1 [compound 17]
14 |  |  |  |  | 11.6 | > 200 | 149 | 50.5 | Cc1nn(-c2ccccc2)c(C)c1NC(=O)COC(=O)Cc1cn(C)c2ccccc12 [compound 18]
15 |  |  |  |  | 0.264 | > 200 | 21.3 | > 200 | Cc1nn(-c2ccc(NCCCCO)cc2)c(C)c1NC(=O)COC(=O)Cn1c(C)cc2ccccc21 [compound 19]
16 |  |  |  |  | 0.24 | > 200 | > 200 | > 200 | Cc1ccc(-n2nc(C)c(NC(=O)COC(=O)Cn3c(C(F)(F)F)cc4ccccc43)c2C)cc1 [compound 20]
17 |  |  |  |  | 112 | > 200 | > 200 | > 200 | Cc1nn(-c2ccc([N+](=O)[O-])cc2)c(C)c1NC(=O)COC(=O)Cn1c(C(F)(F)F)cc2ccccc21 [compound 21]
18 |  |  |  |  | 0.486 | > 200 | 105 | > 200 | Cc1nn(-c2ccc(N)cc2)c(C)c1NC(=O)COC(=O)Cn1c(C)cc2ccccc21 [compound 22]
19 |  |  |  |  | 0.375 | > 200 | > 200 | > 200 | Cc1nn(-c2ccccc2N)c(C)c1NC(=O)COC(=O)Cn1c(C)cc2ccccc21 [compound 23]
20 |  |  |  |  | 9.96 | > 50 | > 50 | > 50 | Cc1cc2ccccc2n1CC(=O)OCC(=O)Nc1ccccc1 [compound 24]

Row | IC50 (KLK6) [µM] | IC50 (Thrombin) [µM] | IC50 (Trypsin) [µM] | IC50 (Factor Xa) [µM] | IC50 (KLK6; [1]) [µM] | IC50 (Thrombin; [2]) [µM] | IC50 (Trypsin; [3]) [µM] | IC50 (Factor Xa; [4]) [µM] | SMILES
21 |  |  |  |  | 30.6 | > 50 | > 50 | > 50 | Cc1nn(-c2ccccc2)c(C)c1NC(=O)COC(=O)Cn1ccc2c(F)cccc21 [compound 25]
22 |  |  |  |  | 26 | > 50 | > 50 | > 50 | Cc1nn(-c2ccccc2)c(C)c1NC(=O)COC(=O)Cn1ccc2cc(Cl)ccc21 [compound 28]
23 |  |  |  |  | 1.2 | > 50 | > 50 | > 50 | Cc1nn(-c2ccccc2)c(C)c1NC(=O)COC(=O)Cn1ccc2cccc(Cl)c21 [compound 31]
24 |  |  |  |  | 3.36 | > 50 | > 50 | > 50 | Cc1nn(-c2ccccc2)c(C)c1NC(=O)COC(=O)Cn1c(C(C)C)cc2ccccc21 [compound 32]
25 |  |  |  |  | 6.49 | > 50 | > 50 | > 50 | Cc1nn(-c2ccccc2)c(C)c1NC(=O)COC(=O)Cn1c(C)cc2cccc(Cl)c21 [compound 33]
26 |  |  |  |  | 11.3 | > 50 | > 50 | > 50 | Cc1nn(-c2ccccc2)c(C)c1NC(=O)COC(=O)C(C)n1c(C)cc2ccccc21 (stereo not shown) [compound 34]
27 |  |  |  |  | 1.41 | > 50 | > 50 | > 50 | Cc1cc2ccccc2n1CC(=O)OCC(=O)Nc1ccc(N2CCOCC2)cc1 [compound 35]
28 |  |  |  |  | 0.433 | > 50 | 29.3 | > 50 | CCc1cc2ccccc2n1CC(=O)OCC(=O)Nc1c(C)nn(-c2ccccc2)c1C [compound 36]
29 |  |  |  |  | 6.98 | > 50 | > 50 | > 50 | Cc1[nH]c2ccccc2c1CC(=O)OCC(=O)Nc1cnn(-c2ccccc2)c1 [compound 39]
30 |  |  |  |  | 31.3 | > 50 | > 50 | > 50 | Cc1nn(-c2ccccc2)c(C)c1NC(=O)COC(=O)Cc1coc2ccccc12 [compound 41]
31 |  |  |  |  | 31.4 | > 200 | > 200 | > 200 | CC(=O)Nc1cccc(CC(=O)OCC(=O)Nc2c(C)nn(-c3ccccc3)c2C)c1 [compound 47]
32 |  |  |  |  | 2.16 | > 200 | > 200 | > 200 | Cc1ccccc1CC(=O)OCC(=O)Nc1c(C)nn(-c2ccccc2)c1C [compound 50]
33 |  |  |  |  | 0.261 | > 200 | > 200 | > 200 | Cc1nn(-c2ccccc2)c(C)c1NC(=O)COC(=O)Cc1ccccc1I [compound 51]
34 |  |  |  |  | 32.8 | > 200 | > 200 | > 200 | COc1ccc(CC(=O)OCC(=O)Nc2c(C)nn(-c3ccccc3)c2C)cc1 [compound 52]
35 |  |  |  |  | 30 | > 200 | > 200 | > 200 | COc1cccc(CC(=O)OCC(=O)Nc2c(C)nn(-c3ccccc3)c2C)c1 [compound 53]
36 |  |  |  |  | 4.85 | > 200 | > 200 | > 200 | COc1ccccc1CC(=O)OCC(=O)Nc1c(C)nn(-c2ccccc2)c1C [compound 54]
37 |  |  |  |  | 17 | > 200 | > 200 | > 200 | Cc1nn(-c2ccccc2)c(C)c1NC(=O)COC(=O)Cc1cccc(N)c1 [compound 55]
38 |  |  |  |  | 16.1 | > 200 | > 200 | > 200 | Cc1nn(-c2ccccc2)c(C)c1NC(=O)COC(=O)Cc1cccc(C#N)c1 [compound 56]
39 |  |  |  |  | 8.86 | > 200 | > 200 | > 200 | Cc1nn(-c2ccccc2)c(C)c1NC(=O)COC(=O)Cc1ccccn1 [compound 58]
40 |  |  |  |  | 6.28 | > 200 | > 200 | > 200 | Cc1nn(-c2ccccc2)c(C)c1NC(=O)COC(=O)Cc1cccs1 [compound 59]
